Measured values published in paper PMC11979273, “A phase I study to evaluate the safety, tolerability, and pharmacokinetics of HEC113995PA·H2O, a novel dual-acting serotonergic antidepressant, in healthy subjects” (Frontiers in Pharmacology, 2025).

Experiments:
[1] = Single ascending-dose study, safety (adverse events); assay type: in vivo, human
Protocol: The study comprised a total of 7 dose groups (2.5, 5, 10, 20, 40, 60, and 80 mg groups, respectively). The first dose group (2.5 mg) consisted of 8 subjects, with 6 receiving HEC113995PA·H2O and 2 receiving placebo. Dose groups 2–7 each included 10 subjects, with 8 subjects receiving HEC113995PA·H2O and 2 subjects receiving placebo. Male and female participants were randomly assigned to the groups. Serial blood samples were collected before and after drug administration to determine the plasma concentration of pharmacokinetics (PK) and to evaluate the pharmacokinetic characteristics. The time points of blood collection and safety evaluation of PK in the second to seventh dose groups were adjusted based on the results of the first dose group. Drug safety and tolerability were evaluated on day 2 and 4 in the first dose group and on day 4 and 7 in the second to seventh dose groups. The trial was conducted in a dose-escalation manner, with progression to the next dose arm only after the safety of the previous arm had been evaluated. In the fourth group (20 mg group), in addition to blood samples, urine and stool samples were also collected for in vivo drug metabolic transformation studies.
Safety indicators were assessed through adverse events (AE), clinical laboratory tests (including blood routine, blood biochemistry, urine routine), vital signs monitoring (ear temperature), pulse, respiration and blood pressure in a sitting position), 12-lead electrocardiogram (ECG) and physical examinations. Adverse events (AE) and serious adverse events (SAE) were evaluated following the criteria outlined in National Cancer Institute Common Terminology Criteria for Adverse Events (NCI-CTCAE) version 5.0.
Any adverse events that occurred in all subjects during the clinical trial were recorded with the following details: AE name, occurrence time, end time, severity, whether it was classified as a SAE, severity criteria (if applicable), treatment measures and outcomes, actions taken on investigational drug due to the AE, and the causal relationship between the AE and administrated drug, etc. Each AE was recorded separately.
The subjects were under close monitoring at the clinical research center until the sample retention and safety evaluation were completed. During the safety trial, drug intolerance of a given dose was defined as follows: grade 2 or higher drug-related AEs occurred in more than half of the subjects, or grade 3 or higher drug-related AEs occurred in more than one quarter of the subjects. The dose escalation was halted after drug intolerance occurred.

rats = assay: Behavioral despair models, rats; assay type: in vivo; conditions: single, multiple, and chronic administrations, unpublished data
5-HT1A receptor = target: T1, 5-HT1A receptor (Homo sapiens, UniProt P08908); assay: 5-HT1A receptor agonism (EC50, EMAX); assay type: biochemical; conditions: in vitro; unpublished data
T1 sequence (P08908 1-422): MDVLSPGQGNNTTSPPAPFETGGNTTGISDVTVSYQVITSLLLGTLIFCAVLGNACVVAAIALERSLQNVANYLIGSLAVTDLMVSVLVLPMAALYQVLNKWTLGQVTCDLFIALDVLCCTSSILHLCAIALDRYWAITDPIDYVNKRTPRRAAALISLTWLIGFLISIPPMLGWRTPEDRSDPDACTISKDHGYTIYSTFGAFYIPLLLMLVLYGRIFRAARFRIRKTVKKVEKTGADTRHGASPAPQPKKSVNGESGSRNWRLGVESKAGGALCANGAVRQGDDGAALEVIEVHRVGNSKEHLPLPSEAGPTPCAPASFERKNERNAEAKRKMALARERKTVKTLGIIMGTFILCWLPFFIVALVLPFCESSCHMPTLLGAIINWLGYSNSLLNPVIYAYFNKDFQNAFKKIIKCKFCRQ

[2] = system: other subtypes of 5-HT receptors, histamine receptors, and acetylcholine receptors; assay: In vitro affinities or activities to other receptors; assay type: binding
Solubility in solvents = assay type: physicochemical

Question: Which “incidence of subjects experiencing TEAEs” value ([1]; SAD 2.5 mg group, 1 case) does the source give for Cc1nc(-c2cnc(N3CCN(CCCc4c[nH]c5ccc(C#N)cc45)CC3)nc2)sc1C(N)=O [HEC113995PA·H2O] here?
Answer: Its value is 16.7%.

Question: And the “incidence of subjects experiencing TEAEs” value ([1]; SAD 5 mg group, 3 cases)?
Answer: Its value is 37.5%.

Question: And the “number of subjects experiencing TEAEs” value ([1]; SAD 10 mg group)?
Answer: The value was 0 case.

Question: What about the “incidence of subjects experiencing TEAEs” value ([1]; SAD 20 mg group, 5 cases) of the same compound?
Answer: The value was 62.5%.

Question: And the “incidence of subjects experiencing TEAEs” value ([1]; SAD 40 mg group, 6 cases)?
Answer: The value was 75%.

Question: And the “incidence of subjects experiencing TEAEs” value ([1]; SAD 60 mg group, 7 cases)?
Answer: The value was 87.5%.

Question: And the “incidence of subjects experiencing TEAEs” value ([1]; SAD 80 mg group, 7 cases)?
Answer: Its value is 87.5%.

Question: And the “incidence of subjects experiencing TEAEs” value ([1]; SAD overall safety analysis set incl. placebo, 36 subjects)?
Answer: The value was 52.9%.

Question: What about the “incidence of subjects experiencing TRAE” value ([1]; SAD overall safety analysis set, 33 cases) of the same compound?
Answer: Its value is 48.5%.

Question: And the “TRAE incidence: abdominal distension” value ([1]; SAD overall, 1 case)?
Answer: Its value is 1.9%.

Question: What about the “TRAE incidence: elevated conjugated bilirubin” value ([1]; SAD overall, 1 case) of the same compound?
Answer: Its value is 1.9%.

Question: What about the “TRAE incidence: elevated serum bilirubin” value ([1]; SAD overall, 1 case) of the same compound?
Answer: Its value is 1.9%.

Question: What about the “TRAE incidence: elevated serum creatine phosphokinase” value ([1]; SAD overall, 1 case) of the same compound?
Answer: The value was 1.9%.

Question: And the “TRAE incidence: hyperuricemia” value ([1]; SAD overall, 5 cases)?
Answer: Its value is 7.4%.

Question: And the “TRAE incidence: nausea” value ([1]; SAD overall, 5 cases)?
Answer: Its value is 7.4%.

Question: And the “TRAE incidence: dizziness” value ([1]; SAD overall, 8 cases)?
Answer: The value was 11.8%.

Question: What about the “TRAE incidence: elevated triglycerides” value ([1]; SAD overall, 8 cases) of the same compound?
Answer: The value was 11.8%.

Question: And the “TRAE incidence: diarrhea” value ([1]; SAD overall, 13 cases)?
Answer: Its value is 19.1%.

Question: And the “severity of elevated conjugated bilirubin” value ([1]; SAD, CTCAE 5.0)?
Answer: The value was “grade 2”.

Question: And the “severity of other TRAEs” value ([1]; SAD, CTCAE 5.0, spontaneously relieved without treatment)?
Answer: The value was “grade 1”.

Question: What about the tolerability ([1]; healthy Chinese subjects, single dose range 2.5–80 mg) of the same compound?
Answer: The tolerability was “well tolerated”.

Question: And the duration of immobility (rats)?
Answer: Its duration of immobility is “significantly reduce”.

Question: And the “5-HT1A receptor activity relative to Vortioxetine” value (5-HT1A receptor)?
Answer: Its value is “comparable activity”.

Question: What about the “activity in agonizing 5-HT1A receptor relative to HEC61139 (Vilazodone)” value (5-HT1A receptor) of the same compound?
Answer: Its value is “slightly weaker activity”.

Question: And the “higher affinities towards SERT and the 5-HT1A receptor than other receptors” value ([2]; in vitro selectivity)?
Answer: Its value is “over 100 fold”.

Question: What about the “in vitro affinities or activities to other receptors” value ([2]; other 5-HT receptor subtypes, histamine and acetylcholine receptors, unpublished data) of the same compound?
Answer: The value was “at the micromolar level”.

Question: And the solubility (Solubility in solvents; 95% ethanol)?
Answer: Its solubility is “practically insoluble”.

Question: And the solubility (Solubility in solvents; N,N-dimethylacetamide (DMA))?
Answer: The solubility was “soluble”.

Question: And the solubility (Solubility in solvents; acetone)?
Answer: The solubility was “practically insoluble”.

Question: What about the solubility (Solubility in solvents; acetonitrile) of the same compound?
Answer: Its solubility is “practically insoluble”.

Question: And the solubility (Solubility in solvents; dichloromethane)?
Answer: The solubility was “practically insoluble”.

Question: What about the solubility (Solubility in solvents; dimethyl sulfoxide (DMSO)) of the same compound?
Answer: The solubility was “readily soluble”.

Question: What about the solubility (Solubility in solvents; methanol) of the same compound?
Answer: The solubility was “practically insoluble”.

Question: What about the solubility (Solubility in solvents; water) of the same compound?
Answer: Its solubility is “practically insoluble”.
